Measurements from patent publication US20240150334A1, “HSD17B13 INHIBITORS AND/OR DEGRADERS” (Pfizer Inc., priority 2022, published 2024).
pIC50: −log10 of the molar value. Structures can show the parent of a compound that is named as a salt.

Legend:
[1] = biological target: HSD17B13 enzyme (Homo sapiens (Human), UniProt Q7Z5P4); assay: hHSD17B13 IC50 Assay (FAC beta-estradiol), purified protein enzyme activity assay with NAD(P)H-Glo luciferase readout; assay type: biochemical; conditions: geometric mean, 12 μM FAC beta-estradiol, 500 μM NAD+, read-out: hHSD17B13_IC50 GMean IC50
HSD17B13 enzyme, sequence (Q7Z5P4 20-300): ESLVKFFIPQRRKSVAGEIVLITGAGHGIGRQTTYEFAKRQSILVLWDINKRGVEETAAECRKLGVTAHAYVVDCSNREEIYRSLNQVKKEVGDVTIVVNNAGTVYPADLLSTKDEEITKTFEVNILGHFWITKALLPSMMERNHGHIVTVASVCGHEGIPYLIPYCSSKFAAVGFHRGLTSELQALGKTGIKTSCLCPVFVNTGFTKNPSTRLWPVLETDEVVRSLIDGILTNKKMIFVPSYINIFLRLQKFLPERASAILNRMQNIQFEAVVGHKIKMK
Procedure, shortened: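 Purified human HSD17B13 (30 nM FAC) incubated with compound, beta-estradiol and NAD+ for 2 h at room temperature in the dark. NADH formation was detected by NAD(P)H-Glo luminescence after 1 h. RLUs normalized to uninhibited enzyme (vehicle) as zero effect.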

[2] = biological target: wild type human HSD17B13 (Homo sapiens (Human), UniProt Q7Z5P4); assay: HEK_Beta-Est LCMS_IC50_Tekcel, whole-cell HEK-HSD17B13 inhibition assay, estrone production by LCMS; assay type: cell-based; conditions: geometric mean, HEK cells stably expressing wild type human HSD17B13, 25 μM FAC beta-estradiol, read-out: HEK_Beta-Est LCMS_IC50—Tekcel GMean IC50
wild type human HSD17B13, sequence (Q7Z5P4 20-300): as above
Procedure, shortened: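 Readout was LCMS quantitation of estrone made from beta-estradiol with NAD+ as cofactor. Whole HEK-HSD17B13 cells were given compound for 1 hour, then the reaction for 2 hours, both at 37° C. Product area ratios were normalized to vehicle controls as zero percent effect.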

pIC50 [1] | pIC50 [2] | Compound
8.15 | 6.66 | COc1ccc(-c2noc([C@]34CC[C@](CNC(=O)c5cc(F)c(O)c(F)c5F)(CC3)CC4)n2)nn1 [Example 15, 2,3,5-Trifluoro-4-hydroxy-N-({4-[3-(6-methoxypyridazin-3-yl)-1,2,4-oxadiazol-5-yl]bicyclo[2.2.2]octan-1-yl}methyl)benzamide]
8.32 | 6.92 | CCn1cc(-c2ccc3cn([C@H]4CC[C@H](CNC(=O)c5cc(F)c(O)c(F)c5F)CC4)nc3c2)cn1 [Example 150, N-({(1r,4r)-4-[6-(1-ethyl-1H-pyrazol-4-yl)-2H-indazol-2-yl]cyclohexyl}methyl)-2,3,5-trifluoro-4-hydroxybenzamide, trifluoroacetate salt]
8.06 | 6.46 | Cn1nccc1-c1ccc2cn([C@H]3CC[C@H](CNC(=O)c4cc(F)c(O)c(F)c4)CC3)nc2c1 [Example 62, 3,5-difluoro-4-hydroxy-N-({(1r,4r)-4-[6-(1-methyl-1H-pyrazol-5-yl)-2H-indazol-2-yl]cyclohexyl}methyl) benzamide]
7.89 | 6.77 | O=C(NC[C@H]1CC[C@H](n2cc3ccc(-c4cnccn4)cc3n2)CC1)c1cc(F)c(O)c(F)c1 [Example 65, 3,5-difluoro-4-hydroxy-N-({(1r,4r)-4-[6-(pyrazin-2-yl)-2H-indazol-2-yl]cyclohexyl}methyl) benzamide]
7.49 | 6.33 | N#Cc1ccc2cn([C@H]3CC[C@H](CNC(=O)c4cc(F)c(O)c(F)c4)CC3)nc2c1 [Example 134, N-{[(1r,4r)-4-(6-cyano-2H-indazol-2-yl)cyclohexyl]methyl}-3,5-difluoro-4-hydroxybenzamide, ammonium salt]
7.68 | 6.60 | O=C(NC[C@H]1CC[C@H](n2cc3ccc(Cl)cc3n2)CC1)c1cc(F)c(O)c(F)c1 [Example 135, N-{[(1r,4r)-4-(6-chloro-2H-indazol-2-yl)cyclohexyl]methyl}-3,5-difluoro-4-hydroxybenzamide, ammonium salt]
7.85 | 6.85 | O=C(NC[C@H]1CC[C@H](n2cc3cc(Cl)ccc3n2)CC1)c1cc(F)c(O)c(F)c1 [Example 132, N-{[(1r,4r)-4-(5-chloro-2H-indazol-2-yl)cyclohexyl]methyl}-3,5-difluoro-4-hydroxybenzamide, ammonium salt]
7.66 | 6.36 | O=C(NC[C@]12CC[C@](n3cc4cc(C(F)(F)F)ccc4n3)(CC1)CC2)c1cc(F)c(O)c(F)c1F [Example 193, 2,3,5-trifluoro-4-hydroxy-N-({4-[5-(trifluoromethyl)-2H-indazol-2-yl]bicyclo [2.2.2]octan-1-yl}methyl)benzamide]
7.77 | 6.60 | O=C(NC[C@]12CC[C@](n3cc4cc(C(F)(F)F)ccc4n3)(CC1)CC2)c1cc(F)c(O)c(F)c1 [Example 125, 3,5-difluoro-4-hydroxy-N-({4-[5-(trifluoromethyl)-2H-indazol-2-yl]bicyclo[2.2.2]octan-1-yl}methyl)benzamide]
8.37 | 6.80 | CC(C)n1cc(-c2ccc3cn([C@H]4CC[C@H](CNC(=O)c5cc(F)c(O)c(F)c5)CC4)nc3c2)cn1 [Example 40, 3,5-difluoro-4-hydroxy-N-{[(1r,4r)-4-{6-[1-(propan-2-yl)-1H-pyrazol-4-yl]-2H-indazol-2-yl}cyclohexyl]methyl} benzamide]
7.96 | 6.54 | O=C(NC[C@H]1CC[C@H](n2cc3ccc(-c4cnn(C5CCOCC5)c4)cc3n2)CC1)c1cc(F)c(O)c(F)c1 [Example 12, 3,5-Difluoro-4-hydroxy-N-{[(1r,4r)-4-{6-[1-(oxan-4-yl)-1H-pyrazol-4-yl]-2H-indazol-2-yl}cyclohexyl]methyl}benzamide]
8.10 | 6.82 | O=C(NC[C@]12CC[C@](c3nc(-c4cnc(C(F)(F)F)cn4)no3)(CC1)CC2)c1cc(F)c(O)c(F)c1F [Example 178, 2,3,5-trifluoro-4-hydroxy-N-[(4-{3-[5-(trifluoromethyl)pyrazin-2-yl]-1,2,4-oxadiazol-5-yl}bicyclo[2.2.2]octan-1-yl)methyl]benzamide]
7.68 | 6.36 | COc1cc2cn([C@H]3CC[C@H](CNC(=O)c4cc(F)c(O)c(F)c4)CC3)nc2cn1 [Example 6, 3,5-Difluoro-4-hydroxy-N-{[(1r,4r)-4-(5-methoxy-2H-pyrazolo[3,4-c]pyridin-2-yl)cyclohexyl]methyl}benzamide]
8.01 | 6.92 | O=C(NC[C@]12CC[C@](c3nc(-c4cnc(C(F)(F)F)cn4)no3)(CC1)CC2)c1cc(F)c(O)c(F)c1 [Example 191, 3,5-difluoro-4-hydroxy-N-[(4-{3-[5-(trifluoromethyl)pyrazin-2-yl]-1,2,4-oxadiazol-5-yl}bicyclo[2.2.2]octan-1-yl)methyl]benzamide]
7.80 | 6.70 | O=C(NC[C@H]1CC[C@H](c2noc(-c3ccccc3)n2)CC1)c1cc(F)c(O)c(F)c1 [Example 138, 3,5-difluoro-4-hydroxy-N-{[(1r,4r)-4-(5-phenyl-1,2,4-oxadiazol-3-yl)cyclohexyl]methyl}benzamide]
7.92 | 6.33 | O=C(NC[C@H]1CC[C@H](c2nc(-c3ccc(C(F)(F)F)cn3)no2)CC1)c1cc(F)c(O)c(F)c1 [Example 2, 3,5-Difluoro-4-hydroxy-N-{[(1r,4r)-4-{3-[5-(trifluoromethyl)pyridin-2-yl]-1,2,4-oxadiazol-5-yl}cyclohexyl]methyl}benzamide]
7.57 | 6.57 | Cc1ccc2nn([C@H]3CC[C@H](CNC(=O)c4cc(F)c(O)c(F)c4)CC3)cc2c1 [Example 131, 3,5-difluoro-4-hydroxy-N-{[(1r,4r)-4-(5-methyl-2H-indazol-2-yl)cyclo-hexyl]methyl} benzamide]
7.96 | 6.72 | O=C(NC[C@H]1CC[C@H](c2noc(-c3cc4ccccn4n3)n2)CC1)c1cc(F)c(O)c(F)c1 [Example 176, 3,5-difluoro-4-hydroxy-N-({(1r,4r)-4-[5-(pyrazolo[1,5-a]pyridin-2-yl)-1,2,4-oxadiazol-3-yl]cyclohexyl}methyl) benzamide]
8.12 | 6.74 | COc1cnc(-c2ccc3cn([C@H]4CC[C@H](CNC(=O)c5cc(F)c(O)c(F)c5)CC4)nc3c2)nc1 [Example 66, 3,5-difluoro-4-hydroxy-N-({(1r,4r)-4-[6-(5-methoxypyrimidin-2-yl)-2H-indazol-2-yl]cyclohexyl}methyl) benzamide]
> 8.36 | 6.96 | CCn1cc(-c2ccc3cn([C@H]4CC[C@H](CNC(=O)c5cc(F)c(O)c(F)c5)CC4)nc3c2)cn1 [Example 47, N-({(1r,4r)-4-[6-(1-ethyl-1H-pyrazol-4-yl)-2H-indazol-2-yl]cyclohexyl}methyl)-3,5-difluoro-4-hydroxybenzamide]
7.80 | 6.31 | Cn1ccc(-c2ccc3c(c2)CN([C@H]2CC[C@H](CNC(=O)c4cc(F)c(O)c(F)c4)CC2)C3=O)n1 [Example 20, 3,5-Difluoro-4-hydroxy-N-({(1r,4r)-4-[5-(1-methyl-1H-pyrazol-3-yl)-1-oxo-1,3-dihydro-2H-isoindol-2-yl]cyclohexyl}methyl)benzamide]
7.96 | 6.59 | COc1nn(C)cc1-c1ccc2cn([C@H]3CC[C@H](CNC(=O)c4cc(F)c(O)c(F)c4)CC3)nc2c1 [Example 42, 3,5-difluoro-4-hydroxy-N-({(1r,4r)-4-[6-(3-methoxy-1-methyl-1H-pyrazol-4-yl)-2H-indazol-2-yl]cyclohexyl}methyl) benzamide]
7.77 | 6.64 | N#Cc1cccc(-c2ccc3cn([C@H]4CC[C@H](CNC(=O)c5cc(F)c(O)c(F)c5)CC4)nc3c2)c1 [Example 55, N-({(1r,4r)-4-[6-(3-cyanophenyl)-2H-indazol-2-yl]cyclohexyl}methyl)-3,5-difluoro-4-hydroxybenzamide]
8.25 | 6.46 | COc1cccc(-c2ccc3cn([C@H]4CC[C@H](CNC(=O)c5cc(F)c(O)c(F)c5)CC4)nc3c2)c1 [Example 64, 3,5-difluoro-4-hydroxy-N-({(1r,4r)-4-[6-(3-methoxyphenyl)-2H-indazol-2-yl]cyclohexyl}methyl) benzamide]
7.59 | 5.64 | Cc1ccc(-c2noc([C@H]3CC[C@H](CNC(=O)c4cc(F)c(O)c(F)c4F)CC3)n2)nn1 [Example 212, 2,3,5-trifluoro-4-hydroxy-N-({(1r,4r)-4-[3-(6-methylpyridazin-3-yl)-1,2,4-oxadiazol-5-yl]cyclohexyl}methyl) benzamide]
7.96 | 6.43 | Cc1ccc(-c2ccc3cn([C@H]4CC[C@H](CNC(=O)c5cc(F)c(O)c(F)c5)CC4)nc3c2)nn1 [Example 63, 3,5-difluoro-4-hydroxy-N-({(1r,4r)-4-[6-(6-methylpyridazin-3-yl)-2H-indazol-2-yl]cyclohexyl}methyl) benzamide]
7.57 | 6.48 | Cc1ccc2cn([C@H]3CC[C@H](CNC(=O)c4cc(F)c(O)c(F)c4)CC3)nc2c1 [Example 130, 3,5-difluoro-4-hydroxy-N-{[(1r,4r)-4-(6-methyl-2H-indazol-2-yl)cyclohexyl]methyl}benzamide]

Compound | pIC50 [1] | pIC50 [2]
O=C(NC[C@]12CC[C@](c3noc(-c4ccc(OS(=O)(=O)F)cc4)n3)(CC1)CC2)c1cc(F)c(O)c(F)c1 [Example 126, 4-(3-{4-[(3,5-difluoro-4-hydroxybenzamido)methyl]bicyclo[2.2.2]octan-1-yl}-1,2,4-oxadiazol-5-yl) phenyl sulfurofluoridate] | 7.80 | 6.37
